Results as given in patent publication US20190336579A1, “COMPOSITIONS AND METHODS TO INDUCE TARGETED APOPTOSIS BY MODULATING PROTEIN TYROSINE PHOSPHATASE 13 (PTPN13)” (National Jewish Health, priority 2010, published 2019).

Columns and labels:
PTPN13 protein = PTPN13 protein expression by Western blot in lung fibroblasts; format: cell-based, human; details: normal, fibrotic and MRC5 fibroblasts; TNF-α 10 ng/ml, IFN-γ 50 U/ml; 36 hours
Procedure: (§1) To assess the effects of these cytokines on PTPN13 expression, non-diseased normal human lung fibroblasts (NHLF), fibrotic human lung fibroblasts (FHLF) and a fetal lung fibroblast cell line, MRC5 cells, were treated with TNF-α (10/ng/ml), IFN-γ (50 U/ml) or with both cytokines for 6 hours. PTPN13 expression was measured by quantitative PCR (FIG. 2A). The primary lung fibroblasts from normal and fibrotic lung had equivalent levels of PTPN13 expression to the MRC5 lung fibroblast cell line. […] Treatment with TNF-α alone caused a 40% decrease in PTPN13 expression. Combined exposure to TNF-α and IFN-γ decreased PTPN13 mRNA expression by 80%. Protein lysates from normal, fibrotic and MRC5 fibroblasts treated for 36 hours with TNF-α (10/ng/ml), IFN-γ (50 U/ml) or with both cytokines were then analyzed for PTPN13 expression. […]
In one exemplary method, to assess whether PTPN13 expression prevents Fas-induced apoptosis, PTPN13 expression was knocked-down using siRNA. […] Apoptosis was assayed by quantifying activation of caspase-3 and caspase-8 (FIG. 3C).
FIG. 3: Decreased PTPN13 expression sensitizes fibroblasts to Fas-induced apoptosis. […] PTPN13 expression was quantified by western blot analysis and densitometry was performed. […] Fas activating antibody (250 ng/ml) (Fas activating antibody) or PBS (unstimulated) was added for 2 hours before analyzing Caspase-8 activation by a fluorescence-based assay. […]

PTPN13 mRNA = PTPN13 mRNA expression by quantitative PCR in lung fibroblasts; format: cell-based, human; details: NHLF, FHLF and MRC5 cells; TNF-α 10 ng/ml, IFN-γ 50 U/ml; 6 hours; compared to untreated cells
Procedure: as §1
FIG. 2: TNF-α and IFN-γ decrease PTPN13 expression. […] Top panel is a quantitative RT-PCR analysis of PTPN13 mRNA lower panel is a Western blot analysis for PTPN13 protein. […] Caspase-8 was measured using a fluorescence based assay.
Total RNA was obtained from 1×10^6 MRC5 cells using the Qiagen RNA Miniprep Kit (Qiagen) following the manufacturer's instructions. […] The fluorescence values of the threshold cycles were collected and normalized to GAPDH. Data are expressed as the relative change in mRNA expression compared to the untreated control.

[1] = Bleomycin murine model of fibrosis, mortality; format: in vivo, mice; details: 2.5 U/kg bleomycin into the trachea
Procedure: To assess the effect of PTPN13 on development of fibrosis in vivo, we used a murine model of fibrosis in a PTPN13−/− mouse. The PTPN13−/− mouse has been characterized by Grusby to have abnormal STAT4 signaling which leads to augmented skewing toward TH1 or TH2 phenotypes. 2.5 U/kg bleomycin was administered directly into the tracheas of PTPN13−/− mice along with wildtype controls. […] Due to drastic weight decreases in the wildtype mice, two weeks was chosen as the end time point. […] Of the 20 wildtype mice treated with bleomycin, 11 (55%) died before two weeks as compared to the PTPN13−/− mice where three of the 20 (15%) died. Saline had no effect on mortality. Then static compliance was measured. […] Collagen content was measured in the lung using a hydroxyproline assay. […] To determine a possible cause for the decreased static compliance in the PTPN13−/− mice, we also measured other markers of lung disease, such as cellular infiltration and capillary leak. We measured the cellularity of the bronchoalveolar fluid (BALF). […] Capillary leak was determined by albumin present in the BALF (FIG. 6F). […] To validate these findings, stereology was performed on lung sections to quantify presence of collagen and diseased areas. […] Percentage of diseased lung was also measured by stereology. […]
FIG. 6: Deficiency of PTPN13−/− Leads to Decreased Bleomycin-induced Lung Fibrosis. […] Collagen content as measured by stereology. […]

| Substance | PTPN13 protein expression (Western blot) (PTPN13 protein) | decrease in PTPN13 mRNA expression (PTPN13 mRNA) | mortality before two weeks ([1]; PTPN13−/− mice, three of 20 died) [%] | mortality before two weeks ([1]; wildtype mice, 11 of 20 died) [%] |
| --- | --- | --- | --- | --- |
| IFN-γ: Recombinant human IFN-γ purchased from R&D Systems | not decreased | minimal decrease | – | – |
| bleomycin | – | – | 15 | 55 |
| TNF-α | decreased | 40% | – | – |
